Results taken from patent publication US20240342320A1, “POLYPEPTIDE TARGETING INTEGRIN ALPHA 6 AND USE THEREOF” (GUANGZHOU GENBIONOVA MEDICAL TECHNOLOGY CO., LTD., priority 2021, published 2024).
Where two headings read alike, the source gives them in different places. Positions of bridges follow the written chain, without caps; N, C: chain ends. Non-standard residues stand in square brackets, D forms with d. Residues, ends and D or L forms follow the SMILES beside them. Primed or numbered codes have the meaning given here. No end group written: not given here. FITC′ = not defined here; PEG4′ = not defined here

Key:
[1] = tested on: HCCLM3 subcutaneous tumors with high integrin α6 expression; test: Near infrared imaging in HCCLM3 subcutaneous tumor bearing mice; assay type: in vivo; settings: 2 μl of 1 mM, tail vein, 24 hours
Method: (§1) In the near infrared imaging of small animals, a 2 μl of 1 mM fluorescent probe RWYD-PEG4-K(ICG)-K(NOTA) (structural formula shown in FIG. 1C) was injected into the tail vein of HCCLM3 subcutaneous tumor bearing mice. After 24 hours of internal circulation, the distribution in the subcutaneous tumor bearing mice was observed.

[2] = tested on: Hep3B subcutaneous tumors without expression of integrin α6; test: Near infrared imaging, Hep3B subcutaneous tumors; assay type: in vivo, mice
[3] = tested on: tumor cells with high integrin α6 expression; test: Flow cytometry affinity assay to tumor cells with high integrin α6 expression; assay type: cell-based, human
Method: (§2) The expression of integrin α6 and β4 in human hepatoma cells HCCLM3, human hepatoma cells Huh-7, human hepatoma cells Hep3B, human nasopharyngeal carcinoma cells S18 and human breast cancer cells MDA-MB-231 were detected by flow cytometry. […] Integrin β4 is expressed in HCCLM3, S18 and MDA-MB-231 cells (FIG. 3F, FIG. 3G, FIG. 3I, FIG. 3J). […] Each cell had 3 duplicate wells. • 2) 2 μl of 1 mM RWYD-PEG4-K-FITC (structural formula shown in FIG. 1B, referred to as RD) or CRWYDENAC-PEG4-K-FITC (referred to as RWY) was added into cells, mixed well, and incubate in an incubator at 37° C. for 2 hours. • 3) The culture medium containing polypeptides was absorbed and removed, the cells were washed with PBS for 3 times, 500 μl/time. • 4) The cells were digested with trypsin, resuspended with medium and centrifuged at 300 g for 5 minutes. • 5) The supernatant was discarded and cell precipitation was preserved, and the cells were resuspended with 500 μl saline and placed into the flow tube. • 6) The FITC channel was detected by flow machine and the results were analyzed by CytExpert.
(§3) RWYD-PEG4 forms dimers or polyploids via lysine (K) ligations. Flow cytometry was used to detect expression of integrin α6 in tumor cells. […] The specific operation of affinity assay of tumor cells to RD2 is similar to that of “affinity assay of tumor cells to RD”.

Hep3B cells [4] = test: Flow cytometry affinity assay to Hep3B cells that do not express integrin α6; assay type: cell-based, human; settings: FITC flow cytometry; Hep3B does not express integrin α6
Method: as §2, §3

[5] = tested on: tumor cells with high integrin α6 expression (HCCLM3, Huh-7, S18, MDA-MB-231; also HT29, KYSE30, SW620, SW1990 for RD2); test: Affinity of RD/RD2 to tumor cells with high integrin α6 expression by flow cytometry; assay type: cell-based, human; settings: FITC probes, 37° C., 2 hours
Method: as §2, §3

Hep3B cells [6] = test: Affinity of RD/RD2 to Hep3B cells (no integrin α6 expression) by flow cytometry; assay type: cell-based, human; settings: FITC probes, 37° C., 2 hours
Method: as §2, §3

[7] = tested on: Hep3B subcutaneous tumors without expression of integrin α6; test: Near infrared imaging of Hep3B subcutaneous tumors; assay type: in vivo, mice
[8] = tested on: HCCLM3 subcutaneous tumors with high integrin α6 expression; test: Near infrared imaging of HCCLM3 subcutaneous tumor bearing mice; assay type: in vivo; settings: tail vein, 24 hours
Method: as §1

integrin α6β1 = integrin α6β1 (Homo sapiens, UniProt P05556+P23229); test: MST affinity to integrin α6β1; assay type: binding
integrin α6β4 [9] = target: T1, integrin α6β4 (Homo sapiens, UniProt P16144+P23229); test: Microscale thermophoresis (MST) affinity to integrin α6β4; assay type: binding; settings: MST
T1 sequence (P23229 24-1050 limits assumed): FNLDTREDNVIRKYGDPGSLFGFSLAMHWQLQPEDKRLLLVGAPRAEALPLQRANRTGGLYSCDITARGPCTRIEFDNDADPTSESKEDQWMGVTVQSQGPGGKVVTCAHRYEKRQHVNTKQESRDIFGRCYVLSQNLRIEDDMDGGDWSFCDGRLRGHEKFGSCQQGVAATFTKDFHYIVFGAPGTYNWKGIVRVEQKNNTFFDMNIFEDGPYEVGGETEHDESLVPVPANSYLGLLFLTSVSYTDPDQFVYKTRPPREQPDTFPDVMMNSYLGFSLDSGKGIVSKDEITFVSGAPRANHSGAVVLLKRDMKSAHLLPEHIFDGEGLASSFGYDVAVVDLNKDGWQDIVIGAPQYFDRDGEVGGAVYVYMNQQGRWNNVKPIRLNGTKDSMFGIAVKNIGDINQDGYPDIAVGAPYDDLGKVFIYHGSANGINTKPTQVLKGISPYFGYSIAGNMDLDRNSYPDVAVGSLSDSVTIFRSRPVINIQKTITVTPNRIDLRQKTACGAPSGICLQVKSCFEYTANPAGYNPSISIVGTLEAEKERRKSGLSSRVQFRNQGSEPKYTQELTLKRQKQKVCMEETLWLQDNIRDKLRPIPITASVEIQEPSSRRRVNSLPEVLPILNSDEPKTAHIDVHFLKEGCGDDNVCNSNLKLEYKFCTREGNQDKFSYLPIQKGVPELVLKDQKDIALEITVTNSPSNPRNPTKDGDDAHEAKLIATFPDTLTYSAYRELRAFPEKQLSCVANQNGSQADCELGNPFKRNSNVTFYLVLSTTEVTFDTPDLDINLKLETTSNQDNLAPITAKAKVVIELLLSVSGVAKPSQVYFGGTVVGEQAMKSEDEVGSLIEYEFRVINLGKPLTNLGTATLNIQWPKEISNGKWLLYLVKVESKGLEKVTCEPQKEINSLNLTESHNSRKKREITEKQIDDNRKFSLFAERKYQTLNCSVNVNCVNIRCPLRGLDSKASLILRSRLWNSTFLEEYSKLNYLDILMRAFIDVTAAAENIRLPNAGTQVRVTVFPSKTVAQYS
T1 sequence (P16144 28-710 partner limits assumed): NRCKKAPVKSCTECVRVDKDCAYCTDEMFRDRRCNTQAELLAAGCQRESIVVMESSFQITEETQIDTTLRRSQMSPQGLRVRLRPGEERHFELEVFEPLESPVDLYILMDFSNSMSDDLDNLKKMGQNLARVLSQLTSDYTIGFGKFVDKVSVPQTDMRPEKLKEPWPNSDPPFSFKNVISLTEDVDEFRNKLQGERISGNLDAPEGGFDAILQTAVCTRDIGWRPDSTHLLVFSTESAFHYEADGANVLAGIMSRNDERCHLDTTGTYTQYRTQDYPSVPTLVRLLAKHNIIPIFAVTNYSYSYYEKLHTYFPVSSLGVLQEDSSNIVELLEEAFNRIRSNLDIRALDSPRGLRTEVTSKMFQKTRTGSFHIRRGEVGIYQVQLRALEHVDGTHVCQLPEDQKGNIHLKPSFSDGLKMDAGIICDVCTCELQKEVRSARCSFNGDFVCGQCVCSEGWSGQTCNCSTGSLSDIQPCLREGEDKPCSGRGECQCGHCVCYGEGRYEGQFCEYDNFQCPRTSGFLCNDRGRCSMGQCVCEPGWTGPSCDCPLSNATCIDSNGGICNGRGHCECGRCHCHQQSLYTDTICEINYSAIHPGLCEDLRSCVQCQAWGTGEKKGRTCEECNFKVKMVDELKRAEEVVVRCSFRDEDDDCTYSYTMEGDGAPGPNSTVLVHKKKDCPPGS
Method: (§4) The affinity between these 18 polypeptides and integrin α6β4 was detected by microscale thermophoresis (MST) method as follows: • 1) Integrin α6β4 protein was dissolved to 800 nM, and polypeptide was dissolved to 100 μM. • 2) A RED-tris-NTA second-generation dye was diluted to 100 nM by using the MO series RED-tris-NTA protein labeling kit. • 3) 100 μl α6β4 protein was mixed with 50 μl dye and incubated at room temperature for 30 min, so that the α6β4 protein binds to the dye. • 4) 10 μl polypeptide was transferred into a PCR tube, and was diluted with PBST (containing 0.05% Tween 20) at a ratio of 1:1 to 16 gradients of concentrations. • 5) 3 μl protein/dye mixture was transferred into a PCR tube, 3 μl of 16 different concentrations of polypeptides was respectively added and mixed well. • 6) The mixture was absorbed by capillary and loaded on machine (instrument model Monolith NT.115) to assay, parameters were set as 80% LED/excitation power and medium MST power. • 7) MO. Affinity Analysis software was used to calculate the equilibrium dissociation constant KD between α6β4 protein and polypeptide by KD fitting mode.

integrin α6β4 [10] = target: T2, integrin α6β4 (Homo sapiens, UniProt P23229); test: as above; assay type: binding
T2 sequence (P23229 24-1050 limits assumed): T1 sequence (P23229 24-1050 limits assumed)
T2 sequence (P16144 28-710 partner limits assumed): T1 sequence (P16144 28-710 partner limits assumed)
Method: as §4

integrin α6β4 [11] = target: T3, integrin α6β4 (Homo sapiens, UniProt P23229); test: Affinity between polypeptide mutants and integrin α6β4 by microscale thermophoresis (MST); assay type: binding
T3 sequence (P23229 24-938 limits assumed): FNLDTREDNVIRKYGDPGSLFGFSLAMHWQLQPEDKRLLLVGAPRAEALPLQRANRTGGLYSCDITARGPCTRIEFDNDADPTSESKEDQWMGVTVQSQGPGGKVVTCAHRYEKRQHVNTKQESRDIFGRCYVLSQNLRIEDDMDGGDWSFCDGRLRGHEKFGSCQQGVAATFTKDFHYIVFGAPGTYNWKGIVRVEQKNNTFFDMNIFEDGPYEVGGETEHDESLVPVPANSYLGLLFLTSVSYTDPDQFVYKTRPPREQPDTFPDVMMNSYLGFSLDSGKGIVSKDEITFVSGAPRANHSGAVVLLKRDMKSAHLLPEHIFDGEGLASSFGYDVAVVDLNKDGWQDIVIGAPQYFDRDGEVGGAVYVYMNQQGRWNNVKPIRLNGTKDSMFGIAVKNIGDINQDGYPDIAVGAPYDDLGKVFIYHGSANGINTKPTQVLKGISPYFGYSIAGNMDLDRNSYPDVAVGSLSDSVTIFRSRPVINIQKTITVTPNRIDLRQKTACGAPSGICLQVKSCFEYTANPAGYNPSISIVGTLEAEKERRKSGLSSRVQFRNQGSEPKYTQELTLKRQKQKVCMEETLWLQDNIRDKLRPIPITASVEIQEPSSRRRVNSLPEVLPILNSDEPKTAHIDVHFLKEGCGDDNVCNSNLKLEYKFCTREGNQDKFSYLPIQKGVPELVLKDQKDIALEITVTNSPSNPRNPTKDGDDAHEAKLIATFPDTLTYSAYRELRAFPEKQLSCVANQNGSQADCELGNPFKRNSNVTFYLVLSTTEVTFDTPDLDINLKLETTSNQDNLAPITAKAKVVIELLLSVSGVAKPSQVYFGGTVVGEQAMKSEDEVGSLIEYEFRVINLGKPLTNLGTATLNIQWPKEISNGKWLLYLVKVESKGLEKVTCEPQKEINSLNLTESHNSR
T3 sequence (P23229 942-1050 limits assumed): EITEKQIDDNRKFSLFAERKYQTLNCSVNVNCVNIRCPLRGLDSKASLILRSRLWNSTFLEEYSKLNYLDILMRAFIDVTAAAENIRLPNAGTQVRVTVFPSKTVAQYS
T3 sequence (P16144 28-710 partner limits assumed): T1 sequence (P16144 28-710 partner limits assumed)
Method: as §4

Chain of integrin α6β1 (P05556 21-728 partner limits assumed, one chain of several): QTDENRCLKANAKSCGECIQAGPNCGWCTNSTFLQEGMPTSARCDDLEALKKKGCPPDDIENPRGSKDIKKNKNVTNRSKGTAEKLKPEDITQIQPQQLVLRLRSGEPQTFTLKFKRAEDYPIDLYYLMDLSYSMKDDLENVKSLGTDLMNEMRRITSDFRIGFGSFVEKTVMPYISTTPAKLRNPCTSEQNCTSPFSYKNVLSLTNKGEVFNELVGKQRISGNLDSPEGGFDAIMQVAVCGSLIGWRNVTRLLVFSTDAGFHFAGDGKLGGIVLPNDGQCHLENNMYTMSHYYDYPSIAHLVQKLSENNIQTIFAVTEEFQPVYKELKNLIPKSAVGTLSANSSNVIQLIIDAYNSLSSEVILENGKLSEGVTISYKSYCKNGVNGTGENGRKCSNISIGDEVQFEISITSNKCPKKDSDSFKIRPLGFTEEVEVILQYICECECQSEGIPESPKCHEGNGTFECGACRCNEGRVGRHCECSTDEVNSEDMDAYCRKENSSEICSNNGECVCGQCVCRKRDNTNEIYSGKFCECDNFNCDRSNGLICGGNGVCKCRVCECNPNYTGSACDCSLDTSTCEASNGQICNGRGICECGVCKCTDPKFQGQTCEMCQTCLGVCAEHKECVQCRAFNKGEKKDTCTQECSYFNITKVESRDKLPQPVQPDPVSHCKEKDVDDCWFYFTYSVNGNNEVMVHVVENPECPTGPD

## RWYD-PEG4-K(ICG)-K(NOTA) [listing 1 of 2 here]
[1]
  tumor uptake, near infrared imaging: high taken up by HCCLM3 subcutaneous tumors
[2]
  tumor uptake, near infrared imaging: not high taken up by Hep3B subcutaneous tumors

## RWYD-PEG4-K-FITC [RD] [listing 1 of 2 here]
[3]; FITC flow cytometry, HCCLM3, Huh7, S18, MDA-MB-231, 37° C., 2 hours
  Affinity to tumor cells with high integrin α6 expression compared with RWY: stronger affinity
Hep3B cells [4]
  Affinity to Hep3B cells, RD versus RWY: consistent

## RWYD-PEG4-K-FITC [RD] [listing 2 of 2 here]
[5]
  affinity to tumor cells: stronger affinity to tumor cells with high integrin α6 expression than RWY
Hep3B cells [6]
  affinity to Hep3B cells: consistent with Hep3B cells

## CRWYDENAC-PEG4-K-FITC (CRWYDENAC[PEG4′]K-{FITC′}; disulfide 1-9 (inferred)) [reference compound] [listing 1 of 2 here]
Hep3B cells [4]
  Affinity to Hep3B cells, RD versus RWY: consistent

## RWYD-PEG4-K(ICG)-K(NOTA) [listing 2 of 2 here]
[7]
  tumor uptake, near infrared imaging: not high taken up
[8]
  tumor uptake, near infrared imaging: high taken up

## (RWYD-PEG4)2-K-K-FITC (not fully specified) [FITC-labeled RWYD dimer]
[3]; HCCLM3, S18, HT29, Huh7, MDA-MB-231, KYSE30, SW620, SW1990
  Affinity to tumor cells with high integrin α6 expression compared with RWYD-PEG4-K-FITC: stronger affinity

## CRWYDENAC-PEG4-K-FITC (CRWYDENAC[PEG4′]K-{FITC′}; disulfide 1-9 (inferred)) [reference compound] [listing 2 of 2 here]
Hep3B cells [6]
  affinity to Hep3B cells: consistent with Hep3B cells

## N=C(N)NCCC[C@H](N)C(=O)N[C@@H](Cc1c[nH]c2ccccc12)C(=O)N[C@@H](Cc1ccc(O)cc1)C(=O)N[C@@H](CC(=O)O)C(=O)O [P15, RWYD] (H-RWYD-OH; N-terminus and C-terminus assumed)
Integrin α6β1
  Kd: 53.1 ± 28.7 nM
Integrin α6β4 [9]; integrin α6β4, determination 1, read-out: KD (um) 1
  Kd: 20 nM
Integrin α6β4 [9]; integrin α6β4, determination 3, read-out: KD (um) 3
  Kd: 26 nM
Integrin α6β4 [9]; integrin α6β4, mean of 3, read-out: KD Mean value (μm)
  Kd: 20 nM
Integrin α6β4 [9]; integrin α6β4, read-out: KD
  Kd: 21.8 ± 3.86 nM
Integrin α6β4 [10]; integrin α6β4
  Affinity increase relative to CRWYDENAC: 327 times
Integrin α6β4 [10]; relative to CRWYDENAC (RWY) = 1.00
  Affinity relative to RWY: 326.875

## (RWYD-PEG4)2-K-K-FITC (not fully specified) [RD2]
[5]
  affinity to tumor cells: stronger affinity to tumor cells with high integrin α6 expression

## (RWYD-PEG4)2-K-K-NOTA (not fully specified)
Integrin α6β4 [11]
  Kd: 64.8 ± 28.2 nM
Integrin α6β4 [11]; NOTA conjugates
  affinity increase of RWYD-PEG4 dimer over RWYD-PEG4-K-NOTA: about 10 times
